Measurements reported in patent publication US8809268B2, “Combination therapy to combat helminth resistance” (The Regents of The University of California, priority 2008, dated 2014).
≈ marks a conversion by molar mass, not a printed value. Where “and” joins values, the source holds several entries; their conditions need not be identical. Equal values may be shown once. Read-outs that look alike come from different tables or passages of the source.

Assays:
C. elegans [1] = experiment: Visual assay on tribendimidine, levamisole or pyrantel plates; conditions: tribendimidine and levamisole plates 100 μg/ml, pyrantel 100 mM stock 1:50 in agar
Procedure: Tribendimidine plates: stock solution (4 mg/ml) in water was prepared and added into standard C. elegans NG agar media (2.5 ml/100 ml) to a final concentration of 100 μg/ml. The mixture was poured into 35 mm plates (4 ml/plate). The plates were stored up to one week at 4° C. The plates were spread with OP50, a laboratory strain of E. coli commonly used as a food source for C. elegans. Resistant=good health and motility; susceptible=contracted, pale color, move slowly.

C. elegans [2] = experiment: Developmental assay on Cry14A dose response plates +/- levamisole; assay type: in vivo, Caenorhabditis elegans; conditions: N2 wild-type, levamisole 0.75 μg/ml
Procedure: Similar experiments with a strain that produces Cry14A, alone and in combination with levamisole were performed. […] The Bt strain used in these experiments expressed Cry14A and two insecticidal Cry proteins (Cry34A and Cry35A) that are not expected to affect nematodes. […] To confirm this conclusion, an independent test of synergy between levamisole and Cry14A was carried out. In these experiments, N2 wild-type worms were plated onto Cry14A plates+/−levamisole.

C. elegans [3] = experiment: whole plant or invertebrate; conditions: for LC50: 6 days at 25° C.; for viability of trb mutant nematodes at concentrations where most or all wild-type nematodes were dead: tribendimidine: trb-1 to trb-4, 100 μg/ml and greater, levamisole: trb-1, trb-2, trb-4, 1000 μM or greater
Procedure: LC50 assays determine the inhibitory concentration at which 50% of the nematodes are dead under certain conditions as calculated using the PROBIT algorithm. LC50 assays start with wild-type (N2) L4 nematodes. To get L4 nematodes, synchronous L1-staged nematodes (as per developmental assay) were plated onto OP50-seeded ENG plates (see below) and put at 20° for 44 h. The now L4-staged larvae were then washed off with water, spun down at 1800 rpm for 40 seconds, re-suspended with SS Media, spun again, and re-suspended in special SS Media to a concentration of 4 nematodes/μl. The assay was set up in a 48-well microtiter plate. Each well contained: 5 μl L4 nematodes (˜20 total), 40 μl of OP50 bacteria as a food source (see below for preparation), 20 μl of tribendimidine (prepared as below), 5 μl of FUdR (8 mM stock; see below), and SS Medium for a total of 200 μl. Each well was set up in triplicate. The plates were wrapped in moist paper towels, placed in a covered plastic box, and incubated at 25° C. for 6 days. The plates were then removed from the incubator and the nematodes transferred with a glass pipette into the well of a spot glass. Each nematode was then scored for dead or alive as follows. Using a thin platinum wire, each nematode was touched to see if it moved within 10 seconds of being touched. If it moved, it was scored as alive. If not, the touch was repeated a second time. If it moved after the second touch, it was scored as alive. […] The number of alive and dead nematodes was tallied for each well. The data from triplicate wells were combined into a single data point. The experiment was repeated for a total of three times on three different days (so a total of 9 wells per data point).
A tribendimidine stock solution was prepared at 4 mg/ml at 1% DMSO in SS Media (final concentration in the well will be 0.1% DMSO). 1% DMSO in SS Media was used as a dilutant to set up serial dilutions. For example, tube 1 contained 160 μl of 4 mg/ml Trib in 1% DMSO. Tube 2 contained 80 μl of the solution in Tube 1, diluted with 80 μl 1% DMSO (1:1 dilution; tube 2). Tube 3 contained 80 μl of the solution from Tube 2, diluted with 80 microliters 1% DMSO, etc. . . .
The trb mutant nematodes were isolated in the forward genetic screen for tribendimidine resistance described above. The LC50 assay was performed as previously described. A levamisole stock solution (100 mM stock) was prepared in water. Dilutions (2-fold) were made in SS Media accordingly such that 20 μl aliquots were added per well to give rise to the desired concentration.

wild-type C. elegans = assay type: in vivo, Caenorhabditis elegans
C. elegans [4] = experiment: whole plant or invertebrate; assay type: in vivo, Caenorhabditis elegans; conditions: for IC50: Caenorhabditis elegans, 60 h
C. elegans [5] = experiment: Brood size assay; assay type: in vivo, Caenorhabditis elegans; conditions: bre-5 mutant vs wild-type, 200 μg/ml tribendimidine, P<0.01
Procedure: L4 staged worms were used. One worm was picked up with an eyelash pick and placed in SS Media in a 48-well plate. […] The total volume was 200 μl. Each drug concentration was repeated in triplicate. The plates were incubated for 64 h at 25° C. The progeny were then transferred out of the well with a pipette onto an empty NG agar plate for counting. The experiment was repeated a total of three times.

[6] = trb-1, trb-2, trb-3, trb-4 mutants
[7] = Caenorhabditis elegans, 144 h, bre-2 mutant (Cry5B-resistant)
[8] = Caenorhabditis elegans, 144 h, bre-5 (ye17) mutant (Cry5B-resistant)
[9] = Caenorhabditis elegans, 144 h, wild-type (N2), L4 nematodes
[10] = combination of Cry5B and nAChR agonist, 1:1 ratio (μg/ml)
[11] = combination of Cry6A and levamisole
[12] = combination of Cry21A and levamisole, 3 days at 20° C.
[13] = combination of levamisole and Bt strain producing Cry14A (also Cry34A, Cry35A)

SMILES | appearance of nematodes on drug plates (C. elegans [1]; [6]) | appearance of nematodes on drug plates (C. elegans [1]; wild-type) | LC50 (C. elegans [3]; [7]) [µg/mL] | LC50 (C. elegans [3]; [8]) [µg/mL] | LC50 (C. elegans [3]; [9]) [µg/mL] | viability of trb mutant nematodes at concentrations where most or all wild-type nematodes were dead (C. elegans [3]) | LC50 (C. elegans [3]; wild-type (N2), L4 nematodes) | synergism factor (CI value) at ED75 (wild-type C. elegans; [10]) | synergism factor (CI value) at ED90 (wild-type C. elegans; [10]) | synergism factor (CI value) at ED95 (wild-type C. elegans; [10]) | other results
c1ccc([C@H]2CN3CCSC3=N2)cc1 [Levamisole] | resistant | sick | 1.16 (≈ 5.68 µM) | 9.99 (≈ 48.9 µM) | 19.6 (≈ 96 µM) | mostly or all alive | 11.712 µg/mL (≈ 57.3 µM) | 0.29 | 0.22 | 0.19 | effect of levamisole alone on worm development (C. elegans [2]): does not inhibit worm development; % alive (C. elegans [3]; trb-3(ye494) nematodes at 1 mM (1000 μM) levamisole): > 40%; synergism factor (CI value) at ED75 (wild-type C. elegans; [11]): 0.96; synergism factor (CI value) at ED90 (wild-type C. elegans; [11]): 0.86; synergism factor (CI value) at ED95 (wild-type C. elegans; [11]): 0.82; synergism factor (CI value) at ED75 (wild-type C. elegans; [12]): 0.52; synergism factor (CI value) at ED90 (wild-type C. elegans; [12]): 0.42; synergism factor (CI value) at ED95 (wild-type C. elegans; [12]): 0.37; synergism factor (CI value) at ED75 (wild-type C. elegans; [13]): 0.60; synergism factor (CI value) at ED90 (wild-type C. elegans; [13]): 0.50; synergism factor (CI value) at ED95 (wild-type C. elegans; [13]): 0.44
CN1CCCN=C1/C=C/c1cccs1 [Pyrantel] | resistant | sick | 10.9 (≈ 52.7 µM) | 114 (≈ 553 µM) | 502 (≈ 2430 µM) |  | 594.956 µg/mL (≈ 2880 µM) | 0.74 | 0.73 | 0.72 | 
C/C(=N\c1ccc(/N=C/c2ccc(/C=N/c3ccc(/N=C(\C)N(C)C)cc3)cc2)cc1)N(C)C [Tribendimidine] | resistant | sick | 7.27 (≈ 16.1 µM) | 12.3 (≈ 27.2 µM) | 54.4 (≈ 120 µM) | mostly or all alive | 58.372 µg/mL and 57.38 µg/mL | 0.28 | 0.19 | 0.14 | IC50 (C. elegans [4]; read-out: IC50 (inhibitory concentration at which 50% of the larvae are unable to complete development), wild-type (N2), L1 larvae, 60 h at 20° C.): 18.4 µg/mL (≈ 40.6 µM); IC50 (C. elegans [4]; read-out: IC50 (larval development), bre-5 (ye17) mutant (Cry5B-resistant), 60 h at 20° C.): 13.2 µg/mL (≈ 29.1 µM); IC50 (inhibitory concentration at which 50% of the larvae are unable to complete development) (C. elegans [4]; wild-type (N2), L1 larvae, 60 h at 20° C.): 14.718 µg/mL; response of levamisole-resistant mutants in LC50 assay (C. elegans [3]; mutants in 11 levamisole resistance genes (lev-1, lev-8, lev-9, lev-10, lev-11, unc-22, unc-29, unc-38, unc-50, unc-63, unc-74), high concentrations): resistant to tribendimidine; brood size, mutant relative to wild-type (C. elegans [5]): reduced significantly
